Results: the supplement of paper PMC11061612

Key:
Assay in all cases: Bliss excess, mean over the matrix (fraction); higher = more synergy
[1] = system: SU-DHL-10 (B-Cell Non-Hodgkin's Lymphoma)
Summary of the method: (§1)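 Cell lines in DMEM/F12 or RPMI with 10% FBS were plated in 1536-well plates, held 24 hours at 37°C, 5% CO2, then given two-drug dose matrices for 72 hours (DMSO typically 0.2%). Viability was read by CellTiter-Glo 2.0 luminescence and scaled as inhibition from 0 (vehicle wells) to 1 (blank wells). Combination Emax is the second-highest inhibition in the matrix; Bliss excess is observed combination effect minus expected EA + EB − EA·EB, EA and EB being single-agent effects.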

LN-229 (Glioblastoma) = system: LN-229 (Glioblastoma)
Summary of the method: as §1

IST-MES1 (Mesothelioma) = system: IST-MES1 (Mesothelioma)
Summary of the method: as §1

[2] = system: HSC-39 (Gastric Carcinoma)
Summary of the method: as §1

[3] = system: NCI-H446 (Small Cell Lung Carcinoma)
Summary of the method: as §1

SF539 (Glioblastoma) = system: SF539 (Glioblastoma)
Summary of the method: as §1

[4] = system: SK-PN-DW (Other Solid Carcinomas)
Summary of the method: as §1

[5] = system: NCI-H23 (Lung Adenocarcinoma)
Summary of the method: as §1

[6] = system: RKN (Other Solid Carcinomas)
Summary of the method: as §1

[7] = system: MFE-280 (Endometrial Carcinoma)
Summary of the method: as §1

SF268 (Low Grade Glioma) = system: SF268 (Low Grade Glioma)
Summary of the method: as §1

[8] = system: REH (B-Lymphoblastic Leukemia)
Summary of the method: as §1

WM278 (Melanoma) = system: WM278 (Melanoma)
Summary of the method: as §1

WM793B (Melanoma) = system: WM793B (Melanoma)
Summary of the method: as §1

[9] = system: FADU (Head and Neck Carcinoma)
Summary of the method: as §1

[10] = system: PSN1 (Pancreatic Carcinoma)
Summary of the method: as §1

[11] = system: MKN45 (Gastric Carcinoma)
Summary of the method: as §1

[12] = system: GP5d (Colorectal Carcinoma)
Summary of the method: as §1

GB-1 (Glioblastoma) = system: GB-1 (Glioblastoma)
Summary of the method: as §1

[13] = system: HCT-15 (Colorectal Carcinoma)
Summary of the method: as §1

Row | Structure (SMILES) | Bliss excess [1] | Bliss excess (LN-229 (Glioblastoma)) | Bliss excess (IST-MES1 (Mesothelioma)) | Bliss excess [2] | Bliss excess [3] | Bliss excess (SF539 (Glioblastoma)) | Bliss excess [4] | Bliss excess [5] | Bliss excess [6] | Bliss excess [7] | Bliss excess (SF268 (Low Grade Glioma)) | Bliss excess [8] | Bliss excess (WM278 (Melanoma)) | Bliss excess (WM793B (Melanoma)) | Bliss excess [9] | Bliss excess [10] | Bliss excess [11] | Bliss excess [12] | Bliss excess (GB-1 (Glioblastoma)) | Bliss excess [13]
1 | CN(C)CCCOc1ccc(-c2ccc3ncc4c(c3c2)n(C2CCOCC2)c(=O)n4C)cn1 [AZD0156] + C[C@@H]1COCCN1C2=NC(=NC(=C2)C3(CC3)[S@](=N)(=O)C)C4=C5C=CNC5=NC=C4 [AZD6738] (first compound max 1 µM, 7x7, partner max 10 µM) | 0.0699 | -0.0412 | -0.0679 | 0.0054 | 0.0625 | 0.0274 | -0.075 | -0.0218 | -0.0126 | -0.0116 | -0.0359 | -0.0277 | -0.0332 | 0.0342 | 0.0537 | -0.0202 | 0.0072 | 0.0291 | -0.0132 | 0.0663
2 | CC(=O)Nc1cccc(-n2c(=O)n(C3CC3)c(=O)c3c(Nc4ccc(I)cc4F)n(C)c(=O)c(C)c32)c1 [Trametinib] + Cc1nc(-c2cn3c(n2)-c2ccc(-c4cnn(C(C)(C)C(N)=O)c4)cc2OCC3)n(C(C)C)n1 [Taselisib] (first compound max 1 µM, 7x7, partner max 10 µM) | 0.0528 | 0.19 | 0.0469 | 0.184 | 0.0967 | 0.177 | -0.0286 | 0.189 | 0.124 | 0.021 | 0.0152 | 0.0939 | 0.13 | 0.0203 | 0.213 | 0.0665 | -0.0862 | -0.0186 | 0.159 | 0.139
3 | COc1cccc(OCCCN)c1-c1cc(Nc2cnc(C#N)cn2)n[nH]1 [Prexasertib] + O=C(c1cc(Cc2n[nH]c(=O)c3ccccc23)ccc1F)N1CCN(C(=O)C2CC2)CC1 [Olaparib] (first compound max 1 µM, 7x7, partner max 10 µM) | 0.0083 | -0.181 | -0.0105 | 0.0127 | 0.003 | 0.0007 | -0.0689 | -0.0675 | -0.0958 | -0.0223 | 0.0208 | -0.0271 | -0.0732 | -0.0688 | 0.0354 | -0.0146 | -0.044 | -0.0179 | -0.0002 | -0.0077
4 | Cc1cc2ncnn2cc1Nc1ncc2c(n1)n(C1CCOCC1)c(=O)n2C [AZD7648] + CN(C)CCCOc1ccc(-c2ccc3ncc4c(c3c2)n(C2CCOCC2)c(=O)n4C)cn1 [AZD0156] (first compound max 10 µM, 7x7, partner max 1 µM) | 0.001 | -0.0161 | -0.0353 | -0.036 | 0.0418 | 0.0407 | 0.0349 | -0.0031 | -0.0352 | 0.0058 | 0.0098 | -0.113 | -0.0295 | -0.029 | -0.0048 | -0.0413 | -0.0268 | -0.0119 | -0.0089 | -0.019
5 | CN(CCO)CC[C@H](CSc1ccccc1)Nc1ccc(S(=O)(=O)NC(=O)c2ccc(N3CCC([C@@H](O)c4ccccc4-c4ccc(Cl)cc4)CC3)cc2)cc1S(=O)(=O)C(F)(F)F [AZD4320] + Cn1cnc2c(F)c(Nc3ccc(Br)cc3Cl)c(C(=O)NOCCO)cc21 [Selumetinib] (first compound max 1 µM, 7x7, partner max 3 µM) | 0.0912 | 0.0585 | 0.0318 | 0.0414 | -0.0039 | 0.0176 | -0.0198 | 0.0703 | 0.0307 | -0.0211 | 0.0069 | -0.0369 | 0.0582 | 0.0604 | 0.183 | 0.0043 | -0.0725 | 0.0908 | 0.0313 | 0.0267
6 | COc1nnc2ccc(N3CCC(c4ccc(OCCN5CCN(C)C(=O)[C@H]5C)cc4)CC3)nn12 [AZD5153] + CN(CC[C@H](CSC1=CC=CC=C1)NC2=C(C=C(C=C2)S(=O)(=O)NC(=O)C3=CC=C(C=C3)N4CCC(CC4)[C@H](C5=CC=CC=C5C6=CC=C(C=C6)Cl)O)S(=O)(=O)C(F)(F)F)CCO [AZD4320] (first compound max 1 µM, 7x7, partner max 1 µM) | -0.0269 | 0.0357 |  |  | 0.107 |  |  | -0.0027 |  |  | -0.0183 |  | 0.0168 | -0.0257 | 0.0146 |  |  | 0.0199 | 0.0003 | -0.0035
7 | C=CCn1c(=O)c2cnc(Nc3ccc(N4CCN(C)CC4)cc3)nc2n1-c1cccc(C(C)(C)O)n1 [AZD1775] + C[C@@H]1COCCN1C2=NC(=NC(=C2)C3(CC3)[S@](=N)(=O)C)C4=C5C=CNC5=NC=C4 [AZD6738] (first compound max 1 µM, partner max 10 µM) | 0.0505 | -0.0069 | -0.025 | 0.0459 | 0.0581 | 0.0027 | 0.0186 | 0.0238 | -0.0029 | 0.0536 | 0.0337 | 0.0406 | -0.0058 | -0.034 | 0.0676 | -0.0188 | -0.0711 | 0.0418 |  | 0.0483
8 | Cc1c2c(nn1C)CSCc1cc(n(C)n1)CSc1cc(c3ccccc3c1)OCCCc1c(C(=O)O)n(C)c3c-2c(Cl)ccc13 [AZD5991] + Cc1cc2ncnn2cc1Nc1ncc2c(n1)n(C1CCOCC1)c(=O)n2C [AZD7648] (first compound max 1 µM, 7x7, partner max 10 µM) | 0.0328 | -0.0525 | -0.0122 | 0.0095 | 0.0148 | 0.0057 | -0.0404 | -0.0431 | -0.0151 |  | 0.0006 | -0.0082 | -0.0428 | -0.024 | -0.0003 | -0.0628 | -0.0528 | -0.0338 | -0.0429 | -0.0354
9 | CCc1c2c(nc3ccc(O)cc13)-c1cc3c(c(=O)n1C2)COC(=O)[C@]3(O)CC [SN-38] + O=C(c1cc(Cc2n[nH]c(=O)c3ccccc23)ccc1F)N1CCN(C(=O)C2CC2)CC1 [Olaparib] (first compound max 0.3 µM, 7x7, partner max 10 µM) |  |  | -0.0582 | -0.0724 | 0.0477 | 0.0549 | 0.0708 |  | 0.0145 | 0.0167 |  | 0.0473 | 0.0486 |  | 0.086 | 0.0329 | -0.0495 | 0.143 | 0.0539 | 0.0754
10 | Cc1c2c(nn1C)CSCc1cc(n(C)n1)CSc1cc(c3ccccc3c1)OCCCc1c(C(=O)O)n(C)c3c-2c(Cl)ccc13 [AZD5991] + CN(C)CCCOc1ccc(-c2ccc3ncc4c(c3c2)n(C2CCOCC2)c(=O)n4C)cn1 [AZD0156] (first compound max 1 µM, 7x7, partner max 1 µM) | -0.0258 | 0.0024 | 0.0029 | -0.0201 | 0.052 | -0.0184 | -0.0117 | -0.0201 | 0.0006 | -0.0159 | 0.0324 | -0.0321 | -0.0196 | -0.0312 | 0.0409 |  | -0.0594 | -0.0201 | 0.0075 | 0.0369
11 | C[C@@H](c1ccc2nccn2c1)n1nnc2ncc(-c3cnn(C)c3)nc21 [Savolitinib] + CN(CC[C@H](CSC1=CC=CC=C1)NC2=C(C=C(C=C2)S(=O)(=O)NC(=O)C3=CC=C(C=C3)N4CCC(CC4)[C@H](C5=CC=CC=C5C6=CC=C(C=C6)Cl)O)S(=O)(=O)C(F)(F)F)CCO [AZD4320] (first compound max 1 µM, 7x7, partner max 1 µM) | -0.0067 | -0.0833 |  |  | 0.112 |  |  | 0.0248 |  |  | -0.0491 |  | -0.0406 | -0.0644 | -0.0378 |  |  | -0.0339 | -0.0653 | -0.0274
12 | Cc1c2c(nn1C)CSCc1cc(n(C)n1)CSc1cc(c3ccccc3c1)OCCCc1c(C(=O)O)n(C)c3c-2c(Cl)ccc13 [AZD5991] + C[C@@H]1COCCN1C2=NC(=NC(=C2)C3(CC3)[S@](=N)(=O)C)C4=C5C=CNC5=NC=C4 [AZD6738] (first compound max 1 µM, 7x7, partner max 10 µM) | -0.0128 | 0.0344 |  | -0.0026 | 0.0708 | -0.0231 | -0.0175 | -0.0037 | 0.0098 | 0.0388 | 0.0188 | -0.0519 | 0.0307 | 0.0503 | 0.0284 | -0.0143 | -0.0812 | 0.002 | 0.0116 | 0.0431
13 | Cc1c2c(nn1C)CSCc1cc(n(C)n1)CSc1cc(c3ccccc3c1)OCCCc1c(C(=O)O)n(C)c3c-2c(Cl)ccc13 [AZD5991] + CCN(CCO)CCCOc1ccc2c(Nc3cc(CC(=O)Nc4cccc(F)c4)[nH]n3)ncnc2c1 [AZD2811] (first compound max 1 µM, 7x7, partner max 1 µM) | -0.0133 | 0.0043 | -0.002 | 0.0233 |  | 0.0184 | 0.0869 | 0.0222 | -0.0015 | 0.053 | 0.0835 | 0.0422 | 0.0657 | 0.0264 | 0.132 | -0.0467 | -0.0123 | -0.0319 | -0.0318 | 0.0432
14 | CN(CCO)CC[C@H](CSc1ccccc1)Nc1ccc(S(=O)(=O)NC(=O)c2ccc(N3CCC([C@@H](O)c4ccccc4-c4ccc(Cl)cc4)CC3)cc2)cc1S(=O)(=O)C(F)(F)F [AZD4320] + C=CCn1c(=O)c2cnc(Nc3ccc(N4CCN(C)CC4)cc3)nc2n1-c1cccc(C(C)(C)O)n1 [AZD1775] (first compound max 1 µM, partner max 1 µM) | 0.0069 | 0.0438 | -0.0274 | 0.0562 | 0.0462 | -0.0518 | 0.0052 | 0.0364 | -0.0357 | 0.0823 | 0.0042 | 0.0738 | 0.0846 | -0.0248 | 0.0213 | -0.0112 |  | -0.0238 | -0.0642 | -0.054
15 | CS(=O)(=O)CCNCc1ccc(-c2ccc3ncnc(Nc4ccc(OCc5cccc(F)c5)c(Cl)c4)c3c2)o1 [Lapatinib] + NC1(c2ccc(-c3nc4ccn5c(=O)[nH]nc5c4cc3-c3ccccc3)cc2)CCC1 [MK-2206] (first compound max 10 µM, 7x7, partner max 10 µM) |  | -0.0959 | 0.0433 | 0.104 | -0.0173 | -0.0077 | 0.1 | -0.0481 | -0.0169 | -0.006 |  | 0.0194 |  |  |  | 0.0205 | -0.0466 |  |  | 
